The values below come from patent US20230219957A1, “SMALL MOLECULE CB002-ANALOGES RESTORE THE P53 PATHWAY AND TARGET S-PHASE CHECKPOINT” (Brown University, priority 2020, published 2023).

Each structure is given as a SMILES string.

The experiment concerns SW480 colon cancer cells. The experiment is described as follows: Label-free quantitative proteomic analysis. The experiment is classed as cell-based, human. Particulars: twenty-four hours. Here is the method: Proteomic analysis. SW480 cells were seeded at a density of 1×10^6 in 10 cm dishes and treated with dimethyl sulfoxide vehicle control or CB002-analog #4 for twenty-four hours. Floating cells were collected. Adherent cells were trypsinized. Cells were spun down and washed with phosphate-buffered saline. The pelleted cells were frozen and submitted for LC-MS/MS identification and comparative analysis at the Center for Cancer Research Development, Proteomics Core Facility at the Rhode Island Hospital. Samples (cell pellets) were lysed with a lysis buffer (8M urea, 1 mM sodium orthovanadate, 20 mM HEPES, 2.5 mM sodium pyrophosphate, 1 mM β-glycerophosphate, pH 8.0, twenty minutes, 4° C.) followed by sonication at 40% amplification by using a microtip sonicator (QSonica, LLC, Model no. Q55) and cleared by centrifugation (14,000×g, fifteen minutes, 15° C.). Protein concentration was measured (Pierce BCA Protein Assay, Thermo Fisher Scientific, Waltham, Mass., USA). A total of 100 μg of protein per sample was subjected to trypsin digestion. Tryptic peptides were desalted using C18 Sep-Pak plus cartridges (Waters, Milford, Mass., USA) and were lyophilized for forty-eight hours to dryness. […]
Sample preparation for LC-MS/MS analysis. […] Protein concentration was measured (Pierce BCA Protein Assay, Thermo Fisher Scientific) and 100 μg of protein per sample was subjected for trypsin digestion. […]

With `Cn1c(=O)c2[nH]c(Nc3cccc(C(F)(F)F)c3)nc2n(C)c1=O` [CB002-analog #4], the “CDK4, CKS1B, ERCC6L, MAPK3, and MAX protein abundance” value is recorded as “decreased”.
